Experimental data: US9826732B2, “Composition for cryopreservation of cells and tissues” (Bio Verde Inc., priority 2008, dated 2017)

Assays:
Format in all cases: cell-based
L929 cells [1] = assay: Toxicity test, MTT assay, 50% cell growth inhibition; conditions: 48 hours culture with polymer
Protocol: Toxicity test was performed on L929 cells. The cells having been suspended in a culture medium of DMEM with 10% fetal bovine serum are seeded in 96-well plates (1.0×10^3 cells/well) and cultured at 37° C. for 72 hours. Thereafter, each of ε-poly-L-lysine and the modified poly-lysines having been added with varying concentrations of succinic anhydride was added to the culture media to attain final concentrations of 0-10%.

L929 cells [2] = assay: Thawed L929 cells seeded directly without dilution or washing, cultured 24 hours; conditions: thawed liquid seeded directly, no dilution nor washing, FIG. 3-1, 3-2
Protocol: Meanwhile, the cryopreservation liquid containing the L929 cells was frozen, thawed and directly seeded in 12-well plates and cultured at 37° C. for 24 hours. In detail, the cells were cryopreserved in the 7.5% solution of the PLL succinic anhydride 63% and thawed as in EXAMPLE 2, except that no dilution nor washing was made for the liquid or the cells, and the liquid containing the cells was directly transferred to the plates for culturing.

[3] = test system: Rat mesenchymal stem cells (RMSC); assay: Cryopreservation of rat mesenchymal stem cells, survival after thawing
[4] = test system: CD34-expressing hematopoietic cells; assay: Cryopreservation of umbilical cord blood, CD34 flow cytometry; conditions: human cord blood; −80° C. for three months
Protocol: Umbilical cord blood was collected from human umbilical cord by a 7 mL plastic vacuum blood sampling tube (Venoject II, Terumo Corporation) loaded with 10.5 mg anticoagulant (EDTA2Na). […] Then the cord blood was quickly thawed in a water bath at 37° C., and a sample of cord blood without dilution was analyzed with respect to the expression of the surface marker, CD34, by flow cytometry. The number of hematopoietic cells expressing CD34 was measured according to the standard method described in the literature (A. Higuchi et al., J. Biomed. Mater. Res., 68A, the fixed method of 34-42 (2004)). Thus the number of CD34-expressing hematopoietic cells was estimated according to the protocol in the manual (International Hemotherapeutics and Transplantation Society ISHAGE guideline) using Stem-Kit (Beckman-Coulter Corporation). Even after the three months of cryopreservation, number of counted cells of the CD34-expressing hematopoietic cells was estimated to be about 70% of that on the first day when the cord blood was added with the PLL succinic anhydride 63% was added by 7.5%; whereas, when the cord blood in a state of 10% DMSO solution was cryopreserved, number of the CD34-expressing hematopoietic cells was estimated to be about 20% of that on the first day.

C[S+](C)[O-] [DMSO, dimethylsulfoxide] was tested, and the “IC50 (50% Cell-growth-inhibition Concentration)” value (L929 cells [1]) was 2.035 ± 0.017%, the “observation of cells after 24 hours culture” value (L929 cells [2]) was “apparently round in shape and dead” and the “survival rate, 6 hours later” value ([3]; 6 hours after thawing) was 88.3 ± 1.1. For the same molecule, the “survival rate, 24 hours later” value ([3]; 24 hours after thawing) was 92.8 ± 3.5, the “survival rate, Immediately” value ([3]; immediately after thawing) was 92.3 ± 4.3 and the “number of CD34-expressing hematopoietic cells relative to that on the first day” value [4] was “about 20%”.
